# Experimental data: patent publication US6423725B1 (dated 2002)
# Where a name gives a salt, the structure may show the parent alone.
row,melting point,SMILES
1,256 °C,CC1(C)CCC(c2ccccc2)(N2CCC(n3c(=O)[nH]c4ccccc43)CC2)CC1 (as salt: hydrochloride)
2,196 °C,O=c1[nH]c2ccccc2n1C1CCN(C2(c3ccccc3)CCCCCCC2)CC1 (as salt: hydrochloride)
3,187 °C,O=c1[nH]c2ccccc2n1C1CCN(C2(c3ccccc3)CCCCCCCC2)CC1 (as salt: hydrochloride)
4,217 °C,O=c1[nH]c2ccccc2n1C1CCN(C2(c3ccccc3)CCCCCCCCC2)CC1 (as salt: hydrochloride)
5,196 to 202 °C,O=c1[nH]c2ccccc2n1C1CCN(C2(c3ccccc3)CCCCCCCCCC2)CC1 (as salt: hydrochloride)
6,251 °C,O=c1[nH]c2ccccc2n1C1CCN(C2(c3ccccc3)CCCCCCCCCCC2)CC1 (as salt: hydrochloride)
7,185 to 192 °C,O=c1[nH]c2ccccc2n1C1CCN(C2(c3ccc(F)cc3)CCCCCC2)CC1 (as salt: hydrochloride)
8,196 to 199 °C,O=c1[nH]c2ccccc2n1C1CCN(C2(c3cccc(F)c3)CCCCCC2)CC1 (as salt: hydrochloride)
9,216 to 218 °C,COc1cccc(C2(N3CCC(n4c(=O)[nH]c5ccccc54)CC3)CCCCCC2)c1 (as salt: hydrochloride)
10,167 to 173 °C,COc1ccccc1C1(N2CCC(n3c(=O)[nH]c4ccccc43)CC2)CCCCCC1 (as salt: hydrochloride)
11,218 to 219 °C,CC(C)(C)C1CCC(c2ccccc2)(N2CCC(n3c(=O)[nH]c4ccccc43)CC2)CC1 (stereo not drawn) (as salt: hydrochloride)
12,118 to 122 °C,O=C(c1ccccc1)c1ccc2c(c1)[nH]c(=O)n2C1CCN(C2(c3ccccc3)CCCCCC2)CC1 (as salt: hydrochloride)
13,240 to 247 °C,CCCC1(N2CCC(n3c(=O)[nH]c4ccccc43)CC2)CCC2(CCCCC2)CC1 (as salt: hydrochloride)
14,217 °C,CNCCn1c(=O)n(C2CCN(C3(c4ccccc4)CCCCCC3)CC2)c2ccccc21 (as salt: hydrochloride)
15,193 to 197 °C,COc1ccc(C2(N3CCC(n4c(=O)[nH]c5ccccc54)CC3)CCCCC2)cc1 (as salt: hydrochloride)
